According to patent US7781591B2, “Substituted 3-cyanopyridines as protein kinase inhibitors” (Wyeth LLC, priority 2006, dated 2010):

target: T1, human PKCθ full length enzyme (Homo sapiens, UniProt Q04759); assay: PKCθ IMAP assay (fluorescence polarization); type: biochemical; conditions: human PKCθ full length enzyme, IMAP; average value; read-out: IC50 PKCθ IMAP
T1 construct: human PKCθ full length enzyme (Panvera Cat# P2996); purchased Panvera P2996
T1 sequence (Q04759 whole entry): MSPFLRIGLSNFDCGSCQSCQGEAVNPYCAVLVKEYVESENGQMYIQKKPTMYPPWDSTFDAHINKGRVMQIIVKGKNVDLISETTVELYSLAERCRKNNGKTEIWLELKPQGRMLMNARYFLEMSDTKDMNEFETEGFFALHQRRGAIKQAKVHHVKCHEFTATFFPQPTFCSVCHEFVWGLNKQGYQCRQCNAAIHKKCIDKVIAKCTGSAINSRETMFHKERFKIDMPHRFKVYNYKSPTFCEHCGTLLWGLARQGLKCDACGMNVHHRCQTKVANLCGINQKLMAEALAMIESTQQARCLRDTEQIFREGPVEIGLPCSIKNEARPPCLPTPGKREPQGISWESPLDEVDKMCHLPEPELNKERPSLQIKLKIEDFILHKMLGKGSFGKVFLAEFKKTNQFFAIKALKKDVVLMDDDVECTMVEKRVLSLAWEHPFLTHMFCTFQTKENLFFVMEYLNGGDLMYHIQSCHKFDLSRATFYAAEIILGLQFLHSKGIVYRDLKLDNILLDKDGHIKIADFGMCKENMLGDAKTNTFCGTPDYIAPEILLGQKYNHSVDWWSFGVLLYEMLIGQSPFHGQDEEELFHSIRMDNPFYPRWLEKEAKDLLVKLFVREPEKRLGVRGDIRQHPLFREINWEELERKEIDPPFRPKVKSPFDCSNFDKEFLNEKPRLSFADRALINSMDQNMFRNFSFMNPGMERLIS

| Compound | IC50 |
| --- | --- |
| Cc1c(Nc2c(C#N)cncc2-c2ccc(OCCN(C)C)cc2Cl)ccc2[nH]ccc12 [Compound 363, 5-{2-chloro-4-[2-(dimethylamino)ethoxy]phenyl}-4-[(4-methyl-1H-indol-5-yl)amino]nicotinonitrile] | 20 nM |
| COc1ccc(-c2cncc(C#N)c2Nc2cccc3[nH]ccc23)cc1OCCNCCCN1CCOCC1 [Compound 364, 4-(1H-indol-4-ylamino)-5-(4-methoxy-3-{2-[(3-morpholin-4-ylpropyl)amino]ethoxy}phenyl)nicotinonitrile] | 10 nM |
| COc1ccc(-c2cncc(C#N)c2Nc2cccc3[nH]ccc23)cc1OCCNCCCn1ccnc1 [Compound 365, 5-[3-(2-{[3-(1H-imidazol-1-yl)propyl]amino}ethoxy)-4-methoxyphenyl]-4-(1H-indol-4-ylamino)nicotinonitrile] | 4 nM |
| N#Cc1cncc(-c2cccc(OC[C@@H](N)Cc3ccccc3)c2)c1Nc1cccc2[nH]ccc12 [Compound 366, 5-(3-{[(2S)-2-amino-3-phenylpropyl]oxy}phenyl)-4-(1H-indol-4-ylamino)nicotinonitrile] | 20 nM |
| Cc1c(Nc2c(C#N)cncc2-c2cc3cc(CNCc4ccccc4)ccc3s2)ccc2[nH]ccc12 [Compound 367, 5-{5-[(benzylamino)methyl]-1-benzothien-2-yl}-4-[(4-methyl-1H-indol-5-yl)amino]nicotinonitrile] | 3 nM |
| CCCCN1CCN(CCOc2ccc(-c3cncc(C#N)c3Nc3ccc4[nH]ccc4c3C)cc2)CC1 [Compound 368, 5-{4-[2-(4-butylpiperazin-1-yl)ethoxy]phenyl}-4-[(4-methyl-1H-indol-5-yl)amino]nicotinonitrile] | 10 nM |
| N#Cc1cncc(-c2cc3cc(C4OCCCO4)ccc3o2)c1Nc1cccc2[nH]ccc12 [Compound 369, 5-[5-(1,3-dioxan-2-yl)-1-benzofuran-2-yl]-4-(1H-indol-4-ylamino)nicotinonitrile] | 40 nM |
| Cc1c(Nc2c(C#N)cncc2-c2cc3cc(C4OCCCO4)ccc3o2)ccc2[nH]ccc12 [Compound 370, 5-[5-(1,3-dioxan-2-yl)-1-benzofuran-2-yl]-4-[(4-methyl-1H-indol-5-yl)amino]nicotinonitrile] | 4 nM |
| COc1ccc(-c2cncc(C#N)c2Nc2ccc3[nH]ccc3c2C)c(Cl)c1 [Compound 371, 5-(2-chloro-4-methoxyphenyl)-4-[(4-methyl-1H-indol-5-yl)amino]nicotinonitrile] | 30 nM |
| COc1cc(-c2cncc(C#N)c2Nc2ccc3[nH]ccc3c2C)ccc1OCCCl [Compound 372, 5-[4-(2-chloroethoxy)-3-methoxyphenyl]-4-[(4-methyl-1H-indol-5-yl)amino]nicotinonitrile] | 7 nM |
| N#Cc1cncc(-c2cc3ccccc3o2)c1Nc1ccc2[nH]ncc2c1 [Compound 373, 5-(1-benzofuran-2-yl)-4-(1H-indazol-5-ylamino)nicotinonitrile] | 1000 nM |
| Cc1c(Nc2c(C#N)cncc2-c2ccc(O)cc2)ccc2[nH]ccc12 [Compound 374, 5-(4-hydroxyphenyl)-4-[(4-methyl-1H-indol-5-yl)amino]nicotinonitrile] | 20 nM |
| COc1cccc(Cl)c1-c1cncc(C#N)c1Nc1ccc2[nH]ccc2c1C [Compound 375, 5-(2-chloro-6-methoxyphenyl)-4-[(4-methyl-1H-indol-5-yl)amino]nicotinonitrile] | 150 nM |
| COc1cc(-c2cncc(C#N)c2Nc2ccc3[nH]ccc3c2C)ccc1OCCN1CCCCC1 [Compound 376, 5-[3-methoxy-4-(2-piperidin-1-ylethoxy)phenyl]-4-[(4-methyl-1H-indol-5-yl)amino]nicotinonitrile] | 20 nM |
| COc1cc(-c2cncc(C#N)c2Nc2ccc3[nH]ccc3c2C)ccc1OCCN1CCN(C)CC1 [Compound 377, 5-{3-methoxy-4-[2-(4-methylpiperazin-1-yl)ethoxy]phenyl}-4-[(4-methyl-1H-indol-5-yl)amino]nicotinonitrile] | 10 nM |
